{
  "source": "patent US20080153756A1",
  "about": "“Novel Peptides and Methods for the Treatment of Inflammatory Disorders” (Auckland Uniservices Limited, priority 2005, published 2008)",
  "molecules": {"B1": {"name": "integrin α4β7 on mouse TK-1 T lymphoma cells (α4β7+ α4β1-) (receptor)", "chain 1": "YNLDPENALLYQGPSGTLFGYSVVLHSHGSKRWLIVGAPTASWLSNASVVNPGAIYRCGIRKNPNQTCEQLQSGSPSGEPCGKTCLEERDNQWLGVTLSRQPGENGSIVTCGHRWKNIFYMKSDNKLPTGICYVMPSDLRTELSKRMAPCYKDYTRKFGENFASCQAGISSFYTQDLIVMGAPGSSYWTGTVFVYNITTNQYKAFVDRQNQVKFGSYLGYSVGAGHFRSPHTTEVVGGAPQHEQIGKAYIFSIDENELNIVYEMKGKKLGSYFGASVCAVDLNADGFSDLLVGAPMQSTIREEGRVFVYINSGMGAVMVEMERVLVGSDKYAARFGESIANLGDIDNDGFEDIAIGAPQEDDLRGAVYIYNGRVDGISSTYSQRIEGQQISKSLRMFGQSISGQIDADNNGYVDVAVGAFQSDSAVLLRTRPVVIVEASLSHPESVNRTKFDCTENGLPSVCMHLTLCFSYKGKEVPGYIVLFYNVSLDVHRKAESPSRFYFFSNGTSDVITGSIRVSSSGEKCRTHQAFMRKDVRDILTPIHVEATYHLGHHVITKRNTEEFPPLQPILQQKKEKDVIRKMINFARFCAYENCSADLQVSAKVGFLKPYENKTYLAVGSMKTIMLNVSLFNAGDDAYETTLNVQLPTGLYFIKILDLEEKQINCEVTESSGIVKLACSLGYIYVDRLSRIDISFLLDVSSLSRAHEDLSISVHASCENEGELDQVRDNRVTLTIPLRYEVMLTVHGLVNPTSFVYGSSEENEPETCMAEKLNLTFHVINTGISMAPNVSVKIMVPNSFLPQDDKLFNVLDVQTTTGQCHFKHYGRECTFAQQKGIAGTLTDIVKFLSKTDKRLLYCMKADQHCLDFLCNFGKMESGKEASVHIQLEGRPSILEMDETSSLKFEIKATAFPEPHPKVIELNKDENVAHVFLEGLHHQRPKRHFTIIIITISLLLGLIVLLLISCVMWKAGFFKRQYKSILQEENRRDSWSYVNSKSNDD", "chain 2": "ELDTKITSSGEAAEWEDPDLSLQGSCQPVPSCQKCILSHPSCAWCKQLNFTASGEAEARRCARREELLARGCPAQELEEPRGRQEVLQDKPLSQGDRGEGATQLAPQRIRVTLRPGEPQKFRVRFLRAAGYPVDLYYLMDLSYSMKDDLERVRQLGHALLVRLQEVTHSVRIGFGSFVDKTVLPFVSTVPSKLHHPCPSRLERCQPPFSFHHVLSLTGDAQAFEREVGRQNVSGNLDSPEGGFDAILQAALCQEQIGWRNVSRLLVFTSDDTFHTAGDGKLGGIFMPSDGRCHLDSNGVYTNSAEFDYPSVGQVAQALTAANIQPIFAVTGATLPVYQELRQLIPKSAVGELSEDSSNVVQLIMDAYDSLSSTVTLEHSPLPPGVSISFESHCKGPEKTEGEAGDRGQCNDVRVNQTVDFWVTLQATHCLPEAHVLRLWALGFSEELTVELHTVCDCNCGDAQPHAPYCSDGQGDLQCGICSCAPGRLGQLCECSEADLSSPDLESGCRAPNGTGPLCSGKGRCQCGRCSCSGQSSGRLCECDDASCERHEGILCGGFGHCQCGVCHCHANHTGRACECSKSVDSCVSPEGGLCSGHGYCKCNRCQCLDGYYGALCDQCLGCKSPCEQYRDCAECGAFGTGPLAANCSVVCADVNVTLTLAPNLDDGWCKERTIDNQLFFFLVEHAASGIVLRVRPQEKGVDHTRAIILGCTGGIVAVGLGLVLAYRLSVEIYDRREYRRFEKEQQQLNWKQDNNPLYKSAITTTVNPRFQGTNGRSPSLSLTREAD"}},
  "key": {"[1]": {"test_system": "adhesion of Mn++-activated TK-1 cells (α4+ β7+ β1−) to VCAM-1", "assay": "Cell adhesion assay: Mn2+-activated TK-1 cells to VCAM-1-Fc coated wells", "type": "cell-based, mouse", "conditions": "for maximal inhibition of adhesion to VCAM-1 / inhibition of cell adhesion to VCAM-1: Mn++-activated TK-1 cells; for inhibition of cell adhesion to VCAM-1: highest concentration tested, 50 μM", "method": "The soluble VCAM-1-Fc chimera was produced using the glutamine synthetase gene amplification system. The extracellular portions of human VCAM-1 fused to the Fc domain of human IgG1 was expressed from the pEE14 vector (kindly provided by Dr Chris Bebbington, Celltech Ltd, UK) in CHO K1 cells as described previously (27).\n(§1) Lab-Tek 16-well glass slides (Nunc) or flat-bottom 96-well plates (Nunc Maxisorp) were coated overnight at 4° C. with purified VCAM-1-Fc at 10 μg/well in 100 μl of 0.1 M carbonate buffer (pH 9.5). After washing plates were blocked with 100% heat-inactivated FCS, and washed with Hanks balanced salt solution (HBSS) containing 10 mM Hepes, 2 mM Ca^2+ and 2 mM Mn^2+. TK-1 cells were either left unlabeled or labeled with the fluorescent dye chloromethyl fluorescein diacetate (CMFDA; Molecular Probes, Oreg.). For peptide inhibition studies, TK-1 cells were preincubated with peptide in serum-free medium for 30 min at 37° C. and activated by suspension in an Mn^2+-containing buffer (HBSS: 10 mM Hepes containing 2 mM Ca^2+, 2 mM Mn^2+, and 2% FCS). Human IgG1 Ab (10 μg/ml; Sigma) was added to prevent nonspecific capture of cells to the Fc portion of […]. Cells were checked for viability by trypan blue exclusion, added to wells (10^6 cells/well), and incubated for 30 min at 37° C. in a humidified atmosphere of 5% CO2. Non-adherent cells were removed by inverse centrifugation of the plates at 70×g for 5 min followed by gentle pipette washing. The number of unlabeled adherent cells was determined by counting the number of adherent cells in four independent fields at 100× magnification under an inverted microscope. The fluorescence of CMFDA-labeled adherent cells was measured using a VICTOR 1420 multilabel counter (Wallac). Representative data are reported as mean±SD of two independent experiments performed in duplicate. Antibodies against the integrin β7 subunit (Fib504 mAb), and α4β7 complex (DATK32 mAb) were included as positive controls, and added (1:100 dilution of ascites) to cells 20 min prior to the adhesion assay."}, "TK-1 cells": {"test_system": "TK-1 cells", "assay": "Cell viability of peptide-treated TK-1 cells (trypan blue exclusion)", "type": "cell-based, mouse", "conditions": "data not shown", "method": "as §1, with “Non-adherent cells were removed by inverse centrifugation of the plates at 70×g for 5 min followed by gentle pipette washing.” left out, “Representative data are reported as mean±SD of two independent experiments performed in duplicate. Antibodies against the integrin β7 subunit (Fib504 mAb), and α4β7 complex (DATK32 mAb) were included as positive controls, and added (1:100 dilution of ascites) to cells 20 min prior to the adhesion assay.” left out"}, "[2]": {"test_system": "adhesion of TK-1 (α4β7+ α4β1−) cells to MAdCAM-1", "assay": "Cell adhesion assay: TK-1 cells to MAdCAM-1-Fc coated plates", "type": "cell-based, mouse", "conditions": "PMA-activated TK-1 cells, peptide up to 50 μM"}, "[3]": {"target": "T1, soluble VCAM-1-Fc chimera (extracellular portions of human VCAM-1 fused to the Fc domain of human IgG1) (human, UniProt P19320 25-698)", "T1 sequence (looked up)": "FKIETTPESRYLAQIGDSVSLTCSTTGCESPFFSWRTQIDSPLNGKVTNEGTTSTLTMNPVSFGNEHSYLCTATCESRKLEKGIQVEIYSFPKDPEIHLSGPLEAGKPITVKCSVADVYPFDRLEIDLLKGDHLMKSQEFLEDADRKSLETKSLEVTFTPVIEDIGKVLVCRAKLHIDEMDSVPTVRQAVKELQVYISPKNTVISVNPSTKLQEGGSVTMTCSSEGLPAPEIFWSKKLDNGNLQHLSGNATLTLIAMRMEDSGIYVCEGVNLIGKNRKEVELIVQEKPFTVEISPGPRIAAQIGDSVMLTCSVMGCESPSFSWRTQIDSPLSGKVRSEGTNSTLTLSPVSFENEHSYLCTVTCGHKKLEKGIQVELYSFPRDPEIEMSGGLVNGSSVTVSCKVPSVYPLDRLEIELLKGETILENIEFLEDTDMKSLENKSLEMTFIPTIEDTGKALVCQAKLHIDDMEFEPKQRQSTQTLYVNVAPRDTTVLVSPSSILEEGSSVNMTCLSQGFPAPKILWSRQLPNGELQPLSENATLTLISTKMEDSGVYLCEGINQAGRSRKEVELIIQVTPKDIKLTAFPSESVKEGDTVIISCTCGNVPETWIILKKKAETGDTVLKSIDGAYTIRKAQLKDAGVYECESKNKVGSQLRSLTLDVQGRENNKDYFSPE", "assay": "cell-based or functional assay"}},
  "note": "Ends that are not written are not given here.",
  "data": [
    {"molecule": "YINSKSNDD (not fully specified (N-terminus); also: N-terminal carrier biotinylated penetratin or r9, not given here for this peptide; listed as Homo sapiens) [r9-YINSKSNDD]", "values": [
      {"measurement": "maximal inhibition of adhesion to VCAM-1", "setting": "[1]; at 6 μM peptide", "value": "~67", "unit": "%"},
      {"measurement": "effect on cell viability (in words)", "setting": "TK-1 cells", "value": "no effect"}
    ]},
    {"molecule": "DSWSYINS (not fully specified (N-terminus); also: N-terminal carrier biotinylated penetratin or r9, not given here for this peptide; listed as Homo sapiens) [r9-DSWSYINS]", "values": [
      {"measurement": "maximal inhibition of adhesion to VCAM-1", "setting": "[1]; at 6 μM peptide", "value": "~67", "unit": "%"},
      {"measurement": "cells killed", "setting": "TK-1 cells; 50 μM peptide", "value": 15, "unit": "%"}
    ]},
    {"molecule": "CC[C@H](C)[C@H](NC(=O)[C@H](Cc1ccc(O)cc1)NC(=O)[C@H](CO)NC(=O)[C@H](Cc1c[nH]c2ccccc12)NC(=O)[C@H](CO)NC(=O)[C@H](CC(=O)O)NC(=O)[C@H](CCCCN)NC(=O)[C@H](CCCCN)NC(=O)[C@H](Cc1c[nH]c2ccccc12)NC(=O)[C@H](CCCCN)NC(=O)[C@H](CCSC)NC(=O)[C@H](CCCNC(=N)N)NC(=O)[C@H](CCCNC(=N)N)NC(=O)[C@H](CC(N)=O)NC(=O)[C@H](CCC(N)=O)NC(=O)[C@H](Cc1ccccc1)NC(=O)[C@H](Cc1c[nH]c2ccccc12)NC(=O)[C@@H](NC(=O)[C@H](CCCCN)NC(=O)[C@@H](NC(=O)[C@H](CCC(N)=O)NC(=O)[C@@H](N)CCCNC(=N)N)[C@@H](C)CC)[C@@H](C)CC)C(=O)N[C@@H](CC(N)=O)C(=O)N[C@@H](CO)C(=O)N[C@@H](CCCCN)C(=O)N[C@@H](CO)C(=O)N[C@@H](CC(N)=O)C(=O)N[C@@H](CC(=O)O)C(=O)N[C@@H](CC(=O)O)C(=O)O", "note": "[Pen-DSWSYINSKSNDD, DSWSYINSKSNDD]", "values": [
      {"measurement": "inhibition of T cell adhesion to VCAM-1 (in words)", "setting": "[1]; Mn2+-activated TK-1 cells, FIG. 2A", "value": "active"},
      {"measurement": "maximal inhibition of adhesion to VCAM-1", "setting": "[1]; at 30 μM", "value": 72, "unit": "%"}
    ]},
    {"molecule": "KSNDD ({biotinylated r9}-KSNDD; listed as Homo sapiens) [r9-KSNDD]", "values": [
      {"measurement": "inhibition of cell adhesion to VCAM-1", "setting": "[1]", "value": 27, "unit": "%"}
    ]},
    {"molecule": "DSWS", "values": [
      {"measurement": "inhibition of PMA-induced T cell adhesion to MAdCAM-1 (in words)", "setting": "[2]", "value": "inactive"}
    ]},
    {"molecule": "DSWSY [r9-DSWSY]", "values": [
      {"measurement": "inhibition of cell adhesion to VCAM-1", "setting": "[1]", "value": 75, "unit": "%"}
    ]},
    {"molecule": "SWSY (listed as Homo sapiens)", "values": [
      {"measurement": "inhibition of PMA-induced T cell adhesion to MAdCAM-1 (in words)", "setting": "[2]", "value": "retained the ability of the parent peptide DSWSY to inhibit T cell adhesion"}
    ]},
    {"molecule": "YINSK ({biotinylated r9}-YINSK; listed as Homo sapiens) [r9-YINSK]", "values": [
      {"measurement": "inhibition of cell adhesion to VCAM-1", "setting": "[1]", "value": 80, "unit": "%"}
    ]},
    {"molecule": "QYKSILQEENRRD [Pen-QYKSILQEENRRD]", "values": [
      {"measurement": "inhibition of cell adhesion to VCAM-1", "setting": "[1]", "value": 14, "unit": "%"}
    ]},
    {"molecule": "B1", "values": [
      {"measurement": "IC50 of the cell-permeable peptide Pen-… for inhibition of adhesion of Mn++-activated TK-1 cells to VCAM-1", "setting": "[3]", "value": 20, "unit": "µM"}
    ]}
  ]
}
